How the values were obtained:
human fyn SH2 domain = biological target: T1, human fyn SH2 domain (Homo sapiens, UniProt P06241); test: ELISA-based SH2 domain / pY peptide binding assay, fyn SH2 domain
T1 construct: made in house; host or cells: E. coli (pGEX-2T)
Protocol: (§1) The inhibitory activity of compounds at the different human SH2 domains was determined in vitro using SH2 domains expressed as fusion proteins in E. coli. The SH2 domains used herein were the human forms of the src SH2 domain, Grb2 SH2 domain, lck SH2 domain, fyn SH2 domain, SH-PTP2 SH2 domain, p85 SH2 domain and hcp SH2 domain.
(§2) Fusion proteins having the structure GST-X-SH2 were prepared as described in the GST gene fusion kit system available from Pharmacia (New Jersey). GST is the tagging sequence glutathione s-transferase epitope (SEQ ID NO: 8) for fyn, Grb2 and SH-PTP2 and is the tagging sequence glutathione s-transferase epitope (SEQ ID NO: 9) for p85. SH2 refers to the SH2 domains of fyn, Grb2, p85 and SH-PTP2 which were expressed and purified using glutathione Sepharose 4B (Pharmacia) according to "Current Protocols in Molecular Biology", ed. FM Ausubel et al., pub. John Wiley and Sons, Inc., (1995), p 16.7.1. X is an appropriate linker, preferably of 6 to 21 base pairs, used to keep the SH2 construct in frame and complement cloning. As such, the sequence of X is not critical. One skilled in the art can readily construct the appropriate linker. The DNA sequence encoding each GST-X-SH2 fusion protein was designed such that the indicated restriction sites (BamH1 and EcoRI) flank the SH2 region. […]

human SH-PTP2 SH2 domain = biological target: T2, human SH-PTP2 SH2 domain (Homo sapiens, UniProt Q06124); test: ELISA-based SH2 domain / pY peptide binding assay, SH-PTP2 SH2 domain; settings: Ki calculated from IC50 with the expanded equation
T2 construct: made in house; host or cells: E. coli (pGEX-2T)
T2 sequence (Q06124 1-106): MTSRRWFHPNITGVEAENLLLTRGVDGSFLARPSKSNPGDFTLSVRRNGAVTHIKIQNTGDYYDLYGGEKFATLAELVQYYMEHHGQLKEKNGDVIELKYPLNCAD
Protocol: as §1, §2

human Grb2 SH2 domain = biological target: T3, human Grb2 SH2 domain (Homo sapiens, UniProt P62993); test: ELISA-based SH2 domain / pY peptide binding assay, Grb2 SH2 domain
T3 construct: made in house; host or cells: E. coli (pGEX-2T)
Protocol: as §1, §2

[1] = Ki calculated from IC50 with the expanded equation
[2] = inhibition of binding of 0.1 uM biotinylated pY peptide to SH2 domain fusion protein

T1 sequence (P06241 143-252): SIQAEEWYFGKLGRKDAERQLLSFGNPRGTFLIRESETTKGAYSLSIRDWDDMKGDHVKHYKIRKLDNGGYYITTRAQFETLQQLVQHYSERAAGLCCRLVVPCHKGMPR
T3 sequence (P62993 58-159): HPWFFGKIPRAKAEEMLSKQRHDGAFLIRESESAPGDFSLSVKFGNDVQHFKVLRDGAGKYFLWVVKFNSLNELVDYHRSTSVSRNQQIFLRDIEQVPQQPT

CCCCCCNC(=O)[C@H]1CC[C@H](CNC(=O)c2ccc(C(=O)c3ccc(C(=O)O)cc3)cc2)CC1 [Compound 6, 4-carboxy-benzophenone-4-carboxamido-trans-4-methyl-cyclohexyl-N-hexyl carboxamide]
Ki (human fyn SH2 domain; [1]): > 1000 µM | IC50 (human fyn SH2 domain; [2]): > 300 µM | Ki (human SH-PTP2 SH2 domain): > 1000 µM | Ki (human Grb2 SH2 domain; [1]): > 1000 µM | IC50 (human Grb2 SH2 domain; [2]): > 300 µM
